Experimental findings from patent US20190231757A1, “COMBINATION OF SPLEEN TYROSINE KINASE INHIBITORS AND OTHER THERAPEUTIC AGENTS” (Takeda Pharmaceutical Company Limited, priority 2016, published 2019) are described below.

Each structure is given as a SMILES string. Counter-ions that a name gives are not always drawn.

Data set [1] relates to WSU-Luc human lymphoma xenografts. As to the kind of experiment: Antitumor activity in SCID mice bearing WSU-Luc human lymphoma xenografts, ibrutinib combination (Example 12). As to conditions: Day 20, alone or combined. It is filed as in vivo, mouse. The procedure: The study ended on Day 20 of dosing.
(§1) Tumor growth was monitored with vernier calipers. Tumor volume was calculated using the formula V=W^2×L/2, where V=volume, W=width and L=length of the tumor. When the mean tumor volume reached approximately 190 mm^3, the animals were randomized into treatment groups (n=8/group). […] Tumor growth and body weight were measured twice per week. Tumor growth inhibition and body weight change were calculated on Day 20 of treatment.
Statistical analysis: The differences in the tumor growth trends over time between pairs of treatment groups were assessed using linear mixed effects regression models. These models account for the fact that each animal was measured at multiple time points. A separate model was fit for each comparison, and the areas under the curve (AUC) for each treatment group were calculated using the predicted values from the model. The percent decrease in AUC (dAUC) relative to the reference group was then calculated.
The change in AUC relative to the control was calculated for both single agent treatment groups as well as the combination group. […] The results can be divided into four categories: synergistic, additive, sub-additive, and antagonistic.
For this analysis, a T/C ratio was calculated for each animal by dividing the tumor measurement for the given animal by the mean tumor measurement across all control animals. The T/C ratios across a treatment group were compared to the T/C ratios of the control group using a two-tailed Welch's t-test.
A general note: In xenograft studies the graft and the host belong to different species.

The nature of data set [2]: Body weight and tolerability, WSU-Luc ibrutinib study (Example 12). It is filed as in vivo, mouse. As to conditions: alone or combined. The method, then:
as §1

Data set [3] has as its system OCI-Ly10 human lymphoma xenografts. The data set is described as follows: Antitumor activity in SCID mice bearing OCI-Ly10 human lymphoma xenografts, lenalidomide combination (Example 10). It is filed as in vivo, mouse. Particulars: alone or combined.
For data set [4] the following is noted: mouse, in vivo, po, 60 mg/kg.
For data set [5], the system named is TMD8 DLBCL xenografts. The data set is described as follows: Antitumor activity in CB17 SCID mice bearing TMD8 DLBCL xenografts, gemcitabine combination (Example 8). Particulars: Day 14, alone or combined. It is filed as in vivo, mouse. The procedure:
Tumor growth inhibition was calculated on Day 14 of the study. The last measurement was taken on Day 40 of the study.
(§2) Experimental design: Female CB17 SCID mice (Taconic Biosciences; weight at treatment start was 19 g) were inoculated subcutaneously in the flank (cell suspension) with 5.0×10^6 TMD8 cells. Tumor growth was monitored with vernier calipers. Tumor volume was calculated using the formula V=W^2×L/2, where V=volume, W=width and L=length of the tumor. When the mean tumor volume reached approximately 215 mm^3, the animals were randomized into treatment groups (n=8/group). […] Tumor growth and body weight were measured twice per week. Tumor growth inhibition and body weight change were calculated on Day 14 of treatment.
(§3) Statistical analysis: The differences in the tumor growth trends over time between pairs of treatment groups were assessed using linear mixed effects regression models. These models account for the fact that each animal was measured at multiple time points. A separate model was fit for each comparison, and the areas under the curve (AUC) for each treatment group were calculated using the predicted values from the model. The percent decrease in AUC (dAUC) relative to the reference group was then calculated. […] Further details regarding pairwise comparisons are provided in the Example 2.
Drug combinations were assessed for synergy using observed AUC values. The change in AUC relative to the control was calculated for both single agent treatment groups as well as the combination group. The interaction between the two compounds was then assessed by comparing the change in AUC observed in the combination group to the sum of the changes observed in both single agents. The results can be divided into four categories: synergistic, additive, sub-additive, and antagonistic. Further details regarding combination analysis are provided in the Example 2.
(§4) Once a final analysis was selected, the tumor measurements observed on a date pre-specified by the researcher (typically the last day of treatment) were analyzed to assess tumor growth inhibition. For this analysis, a T/C ratio was calculated for each animal by dividing the tumor measurement for the given animal by the mean tumor measurement across all control animals. The T/C ratios across a treatment group were compared to the T/C ratios of the control group using a two-tailed Welch's t-test.

Data set [6] concerns Ly19 human lymphoma xenografts. As to the kind of experiment: Antitumor activity in SCID mice bearing Ly19 xenografts, rituximab combination (Example 14). It is filed as in vivo, mouse. Particulars: alone or combined.
For data set [7], the system named is Ly10 human lymphoma xenografts. The data set is described as follows: Antitumor activity in SCID mice bearing Ly10 xenografts, rituximab combination (Example 13). It is filed as in vivo, mouse. As to conditions: alone or combined.
The test system of data set [8] is OCI-LY 10 xenografts. As to the kind of experiment: Antitumor activity in CB17 SCID mice bearing OCI-LY10 xenografts, ABT-199 combination (Example 11). It is filed as in vivo, mouse. As to conditions: Day 21, alone or combined. The method, then:
Tumor growth inhibition was calculated on Day 21 of the study. The last measurement was taken on Day 46 of the study.
as §2, with “(Charles River Laboratories, about 21 g” for “(Taconic Biosciences; weight”, “start)” for “start was 19 g)”, “4.0×10^6 OCI-Ly10” for “5.0×10^6 TMD8”, “175” for “215”, “(n=5/group).” for “(n=8/group).”, “21” for “14”
as §3
Drug combinations were assessed for synergy using observed AUC values. The change in AUC relative to the control was calculated for both single agent treatment groups as well as the combination group. The interaction between the two compounds was then assessed by comparing the change in AUC observed in the combination group to the sum of the changes observed in both single agents. The results can be divided into four categories: synergistic, additive, sub-additive, and antagonistic. Further details regarding combination analyses are provided in the Example 2.
as §4

The subject of data set [9] is TMD8 DLBCL xenografts. As to the kind of experiment: Antitumor activity in CB17 SCID mice bearing TMD8 DLBCL xenografts, bendamustine combination (Example 3). It is filed as in vivo, mouse. Particulars: bendamustine 1 mg/kg IV BIW, alone or combined, Day 14.
Where [10] appears, read: Compound A 60 mg/kg, ibrutinib 20 mg/kg.
Where [11] appears, read: Day 14, Compound A 60 mg/kg PO QD x14, rituximab 10 mg/kg IV QW x2.
Setting [12] is: Day 21, Compound A 60 mg/kg PO QD x21, rituximab 1 mg/kg IV QW x3.
Where [13] appears, read: Compound A 60 mg/kg, ABT-199 12.5 mg/kg.

Turning to `Cn1cc(-c2nc(N[C@@H]3CCCC[C@@H]3N)c(F)c3c2C(=O)NC3)cn1` [Compound A, 6-((1R,2S)-2-aminocyclohexylamino)-7-fluoro-4-(1-methyl-1H-pyrazol-4-yl)-1H-pyrrolo[3,4-c]pyridine-3 (2H)-one citrate], the “TGI (%)” value in [1] (Compound A 60 mg/kg PO QD, ibrutinib 20 mg/kg PO QD) was determined as 37.6%; in data set [6] (setting [11]), 36.6%; in data set [7] (setting [12]) it was 76.0%; in [8] (Compound A 60 mg/kg PO QD, ABT-199 12.5 mg/kg PO QD) it was 61.0%; in [9] (Compound A 60 mg/kg PO QD) it was 38.5%. The “Mean Tumor Volume (mm^3) ± SEM” value is reported as 680.4 ± 120.1 mm^3 in data set [1] (setting [10]); 957.2 ± 82.2 mm^3 in [5] (Compound A 60 mg/kg PO QD, gemcitabine 5 mg/kg IP Q3D x4); 408 ± 104.9 mm^3 in data set [8] (setting [13]); 1,085.5 ± 173.3 mm^3 in [9] (Compound A 60 mg/kg PO QD 14 d). For the same molecule, the T/C is 0.62 in [1] (setting [10]); 1.07 in data set [5] (Compound A 60 mg/kg, gemcitabine 5 mg/kg); 0.39 in data set [8] (setting [13]); 0.61 in data set [9] (Compound A 60 mg/kg PO QD). Also, the “% BW Change (Day Maximum)” value in [2] (Compound A 60 mg/kg PO QD 21 d, ibrutinib 20 mg/kg PO QD 21 d) is on record as 11.6 (20) %. Besides, in [2] (setting [10]), the “Number of animals removed” value is 0. In [3] (Day 21, Compound A 60 mg/kg PO QD x21, lenalidomide 10 mg/kg PO QD x21, citrate), the TGI turned out to be 43.6%. Further, the ΔAUC in data set [3] (vs vehicle, Compound A 60 mg/kg, lenalidomide 10 mg/kg) is 34.7 (p < 0.001). Besides, the “increase in mean body weight on Day 14 compared to Day 0” value in data set [4] amounted to 1.6 g. Moreover, the “Mean Tumor Volume (mm^3) ± SEM at Day 14” value in [6] (setting [11]) was 1594.0 ± 115.6 mm^3. Further, the dAUC came to 11.5 in data set [6] (vs vehicle, Compound A 60 mg/kg, rituximab 10 mg/kg) and 122.4 in [7] (vs vehicle, Compound A 60 mg/kg, rituximab 1 mg/kg). Besides, the “Mean Tumor Volume (mm^3) ± SEM at Day 21” value in [7] (setting [12]) came out at 217.6 ± 25.6 mm^3.

The term TGI denotes how far tumour growth fell short of that in controls.
